Assays:
Assay in all cases: relative viability (nuclei count vs DMSO), 5 days (fraction); higher = more cells survive
[1] = test system: 201T
In short: (§1)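 Values are medians from duplicate plates. Each reflects relative viability, defined as the nuclei count of treated wells over that of vehicle wells. Lung cancer cell lines in 1536-well plates were pin-tool dosed one day after seeding with one drug alone or with a fixed anchor-drug dose plus five library-drug doses (not always all listed) in √10 steps, then fixed, stained and imaged at 4× after 5 days.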

[2] = test system: COR-L 105
In short: as §1

[3] = test system: EPLC-272H
In short: as §1

[4] = test system: H3255
In short: as §1

[5] = test system: HCC-78
In short: as §1

[6] = test system: HCC-827
In short: as §1

[7] = test system: LC-2-ad
In short: as §1

[8] = test system: LCLC-97TM1
In short: as §1

[9] = test system: NCI-H1666
In short: as §1

[10] = test system: NCI-H1915
In short: as §1

[11] = test system: NCI-H2087
In short: as §1

[12] = test system: NCI-H2126
In short: as §1

[13] = test system: NCI-H2347
In short: as §1

[14] = test system: NCI-H23
In short: as §1

[15] = test system: NCI-H2405
In short: as §1

[16] = test system: NCI-H322M
In short: as §1

[17] = test system: NCI-H520
In short: as §1

[18] = test system: NCI-H647
In short: as §1

[19] = test system: NCI-H650
In short: as §1

[20] = test system: NCI-H661
In short: as §1

[21] = test system: PC-14
In short: as §1

[22] = test system: RERF-LC-KJ
In short: as §1

Oc1nc(-c2ccc(C(F)(F)F)cc2)nc2c1CSCC2 [XAV939] + CS(=O)(=O)CCNCc1ccc(-c2ccc3ncnc(Nc4ccc(OCc5cccc(F)c5)c(Cl)c4)c3c2)o1 [Lapatinib] (partner 2 µM)
relative viability ([1]; first compound 0.08 µM): 1.08 | relative viability ([1]; first compound 0.253 µM): 0.866 | relative viability ([1]; first compound 0.8 µM): 0.948 | relative viability ([1]; first compound 2.53 µM): 0.896 | relative viability ([2]; first compound 0.08 µM): 0.426 | relative viability ([2]; first compound 0.253 µM): 0.347 | relative viability ([2]; first compound 0.8 µM): 0.37 | relative viability ([2]; first compound 2.53 µM): 0.301 | relative viability ([3]; first compound 0.08 µM): 1.06 | relative viability ([3]; first compound 0.253 µM): 0.893 | relative viability ([3]; first compound 0.8 µM): 1 | relative viability ([3]; first compound 2.53 µM): 0.864 | relative viability ([4]; first compound 0.08 µM): 0.19 | relative viability ([4]; first compound 0.253 µM): 0.238 | relative viability ([4]; first compound 0.8 µM): 0.233 | relative viability ([4]; first compound 2.53 µM): 0.186 | relative viability ([5]; first compound 0.08 µM): 0.868 | relative viability ([5]; first compound 0.253 µM): 0.508 | relative viability ([5]; first compound 0.8 µM): 0.326 | relative viability ([5]; first compound 2.53 µM): 0.457 | relative viability ([6]; first compound 0.08 µM): 0.194 | relative viability ([6]; first compound 0.253 µM): 0.178 | relative viability ([6]; first compound 0.8 µM): 0.238 | relative viability ([6]; first compound 2.53 µM): 0.187 | relative viability ([7]; first compound 0.08 µM): 0.886 | relative viability ([7]; first compound 0.253 µM): 0.749 | relative viability ([7]; first compound 0.8 µM): 0.954 | relative viability ([7]; first compound 2.53 µM): 0.862 | relative viability ([8]; first compound 0.08 µM): 1.11 | relative viability ([8]; first compound 0.253 µM): 0.959 | relative viability ([8]; first compound 0.8 µM): 0.668 | relative viability ([8]; first compound 2.53 µM): 0.81 | relative viability ([9]; first compound 0.08 µM): 0.571 | relative viability ([9]; first compound 0.253 µM): 0.415 | relative viability ([9]; first compound 0.8 µM): 0.442 | relative viability ([9]; first compound 2.53 µM): 0.353 | relative viability ([10]; first compound 0.08 µM): 1.13 | relative viability ([10]; first compound 0.253 µM): 0.934 | relative viability ([10]; first compound 0.8 µM): 1.05 | relative viability ([10]; first compound 2.53 µM): 0.993 | relative viability ([11]; first compound 0.08 µM): 1.12 | relative viability ([11]; first compound 0.253 µM): 1.06 | relative viability ([11]; first compound 0.8 µM): 1.08 | relative viability ([11]; first compound 2.53 µM): 0.89 | relative viability ([12]; first compound 0.08 µM): 0.739 | relative viability ([12]; first compound 0.253 µM): 0.583 | relative viability ([12]; first compound 0.8 µM): 0.667 | relative viability ([12]; first compound 2.53 µM): 0.585 | relative viability ([13]; first compound 0.08 µM): 0.944 | relative viability ([13]; first compound 0.253 µM): 0.708 | relative viability ([13]; first compound 0.8 µM): 0.805 | relative viability ([13]; first compound 2.53 µM): 0.672 | relative viability ([14]; first compound 0.08 µM): 1.17 | relative viability ([14]; first compound 0.253 µM): 1.01 | relative viability ([14]; first compound 0.8 µM): 0.966 | relative viability ([14]; first compound 2.53 µM): 0.932 | relative viability ([15]; first compound 0.08 µM): 1.25 | relative viability ([15]; first compound 0.253 µM): 1.02 | relative viability ([15]; first compound 0.8 µM): 0.972 | relative viability ([15]; first compound 2.53 µM): 1.1 | relative viability ([16]; first compound 0.08 µM): 0.602 | relative viability ([16]; first compound 0.253 µM): 0.57 | relative viability ([16]; first compound 0.8 µM): 0.599 | relative viability ([16]; first compound 2.53 µM): 0.426 | relative viability ([17]; first compound 0.08 µM): 0.83 | relative viability ([17]; first compound 0.253 µM): 0.78 | relative viability ([17]; first compound 0.8 µM): 0.792 | relative viability ([17]; first compound 2.53 µM): 0.682 | relative viability ([18]; first compound 0.08 µM): 0.91 | relative viability ([18]; first compound 0.253 µM): 0.854 | relative viability ([18]; first compound 0.8 µM): 0.987 | relative viability ([18]; first compound 2.53 µM): 0.921 | relative viability ([19]; first compound 0.08 µM): 0.868 | relative viability ([19]; first compound 0.253 µM): 0.957 | relative viability ([19]; first compound 0.8 µM): 1 | relative viability ([19]; first compound 2.53 µM): 0.893 | relative viability ([20]; first compound 0.08 µM): 0.553 | relative viability ([20]; first compound 0.253 µM): 0.482 | relative viability ([20]; first compound 0.8 µM): 0.595 | relative viability ([20]; first compound 2.53 µM): 0.372 | relative viability ([21]; first compound 0.08 µM): 0.301 | relative viability ([21]; first compound 0.253 µM): 0.307 | relative viability ([21]; first compound 0.8 µM): 0.262 | relative viability ([21]; first compound 2.53 µM): 0.266 | relative viability ([22]; first compound 0.08 µM): 0.833 | relative viability ([22]; first compound 0.253 µM): 0.702 | relative viability ([22]; first compound 0.8 µM): 0.672 | relative viability ([22]; first compound 2.53 µM): 0.609

Source: the supplement of paper PMC10307832
